The target of assay [1] is GST-tagged WT KRAS (amino acids 1-188) binding to His-tagged SOS1 (Homo sapiens (Human), UniProt P01116). Briefly: KRAS WT:SOS1 GDP TR-FRET assay. As to conditions: GDP 10 μM; WT KRAS 37.5 nM; SOS1 18 nM. The protocol:
(§1) KRAS: SOS1 GDP TR-FRET Assay
(§2) This assay was used to identify compounds which competitively interact with the binding of KRAS protein to SOS1 in the presence of GDP. GST-tagged WT KRAS (amino acids 1-188), GST-tagged KRAS (amino acids 1-188) G12D and His- tagged SOS1 protein (amino acids 564-1049) was expressed in E. coli and purified. All protein and reaction solutions were prepared in assay buffer containing DPBS pH7.5, 0.1% BSA, and 0.05% Tween 20. Purified GST-tagged WT KRAS or KRAS G12D protein (37.5 nM final assay concentration) and GDP (Sigma, 10 μM final assay concentration) mixture, a serially diluted compound (top final concentration is 50 uM or 10 uM, 3-fold serially diluted, 10 points) and His-tagged SOS1 protein (18 nM final assay concentration) were added into the assay plates (384 well microplate, black, Corning) sequentially. Plates are incubated at 24° C. for 1 hr. Following the incubation, Mab Anti-6His-Tb cryptate (Cisbio) and Mab Anti GST-D2 (Cisbio) were added and further incubated at 24° C. for another 1 hr. The TR-FRET signals (ex337nm, em665nm/620nm) were read on BMG PHERAstar FSX instrument. The inhibition percentage of KRAS protein binding with SOS1 in presence of increasing concentrations of compounds was calculated based on the ratio of fluorescence at 665 nm to that at 620 nm. The IC50 value of each compound was calculated from fitting the data to the four-parameter logistic model by Dotmatics.
For orientation: TR-FRET usually uses a lanthanide donor and a delayed reading to cut background.

Assay [2] has as its target GST-tagged KRAS (amino acids 1-188) G12D binding to His-tagged SOS1 (Homo sapiens (Human), UniProt P01116, G12D). Briefly: KRAS G12D:SOS1 GDP TR-FRET assay. As to conditions: GDP 10 μM; KRAS G12D 37.5 nM; SOS1 18 nM. The protocol:
as §1, §2

Assay [3] deals with pERK1/2(THR202/TYR204) level in AsPC-1 cells. Briefly: pERK assay (HTRF) in AsPC-1 cells. The format is cell-based. As to conditions: Homo sapiens, ASPC1, 2 h compound treatment. The protocol: AsPC-1 cell line was used in this study. Cells were maintained in RPMI-1640 supplemented with 10% fetal bovine serum (Thermo Fisher), 50 units/mL penicillin and streptomycin (Thermo Fisher) and kept at 37° C. in a humidified atmosphere of 5% CO2 in air. Cells were reinstated from frozen stocks that were laid down within 30 passages from the original cells purchased. 30000 cells per well were seeded into a 96-well plate and incubated overnight. Cells were treated with a 10-point dilution series. The final compound concentration is from 0 to 10 μM. After 2 h compound treatment, cells were lysed, and the pERK1/2(THR202/TYR204) level in the cell lysates was detected by HTRF kit (Cisbio). In brief, a total of 16 μl of cell lysate from each well of a 96-well plate was transferred to a 384-well white assay plate. Lysate from each well was incubated with 2 μL of Eu3+- cryptate (donor) labeled anti-phospho-ERK1/2 and 2 μL of D2 (acceptor) labeled anti-phospho-ERK1/2 antibodies (Cisbio) overnight in dark at room temperature. When donor and acceptor are in close proximity, excitation of the donor with laser triggers a Fluorescence Resonance Energy Transfer (FRET) towards the acceptor, which in turn fluoresces at 655 nm wavelength. FRET signals were measured using a PHERAstar FSX reader (BMG Labtech). IC50 determination was performed by fitting the curve of percent inhibition versus the log of the inhibitor concentration using Dotmatics.

Assay [4] deals with KRAS G12D HiBiT in HEK293 KRAS-G12D NanoLuc cell pool (Homo sapiens (Human), UniProt P01116, G12D). Briefly: KRAS G12D NanoLuc assay. It counts as cell-based. As to conditions: 24 h compound treatment. The protocol: HEK293 KRAS-G12D NanoLuc cell pool was used in this study. The cells were stable expressing KRAS G12D HiBiT and LgBiT. Cells were maintained in DMEM supplemented with 10% fetal bovine serum (Thermo Fisher), 50 units/mL penicillin and streptomycin (Thermo Fisher) and kept at 37° C. in a humidified atmosphere of 5% CO2 in air. Cells were reinstated from frozen stocks that were laid down within 30 passages from the cell pool was constructed. 20000 cells per well were seeded a 96-well White with Clear Flat bottom plate for 4 h. Cells were treated with a 10-point dilution series. The final compound concentration is from 0 to 10 μM. After 24 h compound treatment, added 20 μL of CellTiter-Fluor reagent (Promega) to plates, shook for 2 min, incubated at least 30 min in 37° C. Added 25 μL of NanoGlo Live cell reagent (Promega) to the same plate. shook by mini-shaker for 5 min. Measure Luminescence and Fluorescence (380-400nmEx/505nmEm) signals immediately using a PHERAstar FSX reader (BMG Labtech). DC50 determination was performed by fitting the curve of percent inhibition versus the log of the inhibitor concentration using Excel and GraphPad Prism 8.

Molecules are shown by their SMILES.

In general, IC50 refers to the concentration that gives 50% inhibition.

Sequence of GST-tagged KRAS (amino acids 1-188) G12D binding to His-tagged SOS1 (P01116 other isoform, or with tags, fused parts or gaps G12D): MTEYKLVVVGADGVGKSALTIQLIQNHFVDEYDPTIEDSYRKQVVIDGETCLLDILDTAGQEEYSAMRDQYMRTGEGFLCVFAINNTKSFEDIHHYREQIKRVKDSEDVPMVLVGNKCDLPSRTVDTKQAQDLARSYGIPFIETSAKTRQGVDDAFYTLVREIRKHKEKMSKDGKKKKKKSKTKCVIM
Sequence of GST-tagged WT KRAS (amino acids 1-188) binding to His-tagged SOS1 (P01116 other isoform, or with tags, fused parts or gaps): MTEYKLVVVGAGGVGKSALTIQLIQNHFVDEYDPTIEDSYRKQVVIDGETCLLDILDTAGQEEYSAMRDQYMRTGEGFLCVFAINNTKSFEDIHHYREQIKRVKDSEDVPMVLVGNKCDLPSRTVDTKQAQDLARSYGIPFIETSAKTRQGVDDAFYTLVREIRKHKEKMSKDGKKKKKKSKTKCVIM
Sequence of KRAS G12D HiBiT in HEK293 KRAS-G12D NanoLuc cell pool (P01116 other isoform, or with tags, fused parts or gaps G12D): as the sequence (P01116 other isoform, or with tags, fused parts or gaps G12D) above

Regarding `Cc1cccc2cccc(N3CCc4c(nc(OC[C@@H]5CCCN5C)nc4N4C5CCC4C(N)C5)C3)c12` (stereo partly drawn) [Example 2, 7-(7-(8-methylnaphthalen-1-yl)-2-(((S)-1-methylpyrrolidin-2-yl)methoxy)-5,6,7,8-tetrahydropyrido[3,4-d]pyrimidin-4-yl)-7-azabicyclo[2.2.1]heptan-2-amine], the IC50 is 34.2 µM in assay [1] and 4500 nM in assay [2].
On to `CN1C[C@H](F)C[C@H]1COc1nc2c(c(N3CC4CCC(C3)N4)n1)CCN(c1cccc3cccc(Cl)c13)C2` [Example 15, 4-(3,8-diazabicyclo[3.2.1]octan-3-yl)-7-(8-chloronaphthalen-1-yl)-2-(((2S,4R)-4-fluoro-1-methylpyrrolidin-2-yl)methoxy)-5,6,7,8-tetrahydropyrido[3,4-d]pyrimidine], for which the IC50 in assay [1] was more than 10 µM; in assay [2], 41 nM; in assay [3], 4.03 µM.
Turning to `CN1CCC[C@H]1COc1nc2c(c(N3CC4CCC(C3)N4)n1)CCN(c1cccc3cccc(Cl)c13)C2` [Example 7, 4-(3,8-diazabicyclo[3.2.1]octan-3-yl)-7-(8-chloronaphthalen-1-yl)-2-(((S)-1-methylpyrrolidin-2-yl)methoxy)-5,6,7,8-tetrahydropyrido[3,4-d]pyrimidine], the IC50 in assay [1] came out at 17.2 µM; in assay [2], 59 nM; in assay [3], 6.75 µM.
In assay [4], `Cc1ncsc1-c1ccc([C@H](C)NC(=O)[C@@H]2C[C@@H](O)CN2C(=O)[C@@H](NC(=O)CCCCCCN2CCC[C@H]2COc2nc3c(c(N4CC5CCC(C4)N5)n2)CCN(c2cccc4cccc(Cl)c24)C3)C(C)(C)C)cc1` [Example 16] yielded a DC50 of 1000 nM and a Dmax of 73%.
Turning to `CN1CCC[C@H]1COc1nc2c(c(N3C4CCC3CNC4)n1)CCN(c1cccc3cccc(Cl)c13)C2` [Example 3, 4-(3,8-diazabicyclo[3.2.1]octan-8-yl)-7-(8-chloronaphthalen-1-yl)-2-(((S)-methylpyrrolidin-2-yl)methoxy)-5,6,7,8-tetrahydropyrido[3,4-d]pyrimidine], the half-inhibitory concentration (IC50) in assay [1] was more than 50 µM; in assay [2], 635 nM.
As for `Cc1cccc2cccc(N3CCc4c(nc(OC[C@@H]5CCCN5C)nc4N4CC5CCC(C4)N5)C3)c12` [Example 5, 4-(3,8-diazabicyclo[3.2.1]octan-3-yl)-7-(8-methylnaphthalen-1-yl)-2-(((S)-1-methylpyrrolidin-2-yl)methoxy)-5,6,7,8-tetrahydropyrido[3,4-d]pyrimidine], the IC50 in assay [1] was more than 50 µM; in assay [2], 118 nM; in assay [3], more than 10 µM.
As to `CN1CCC[C@H]1COc1nc2c(c(N3CC4CCC(C3)N4)n1)CCN(c1cccc3ccc(F)c(Cl)c13)C2` [Example 11], the values for the concentration for half-maximal inhibition (IC50) in assay [1], in assay [2] and in assay [3] were 3.62 µM, 12 nM and 4.64 µM, respectively.
In the case of `CN1CCC[C@H]1COc1nc2c(c(N3CC4CCC(C3)N4)n1)CCN(c1cc(N)cc(Cl)c1Cl)C2` [Example 13], the IC50 in assay [1] is more than 10 µM; in assay [2] it was 27 nM; in assay [3], 4.1 µM.
`Cc1cccc2cccc(N3CCc4c(nc(OC[C@@H]5CCCN5C)nc4N4CC5CC(C4)N5)C3)c12` [Example 8, 3-(7-(8-methylnaphthalen-1-yl)-2-(((S)-1-methylpyrrolidin-2-yl)methoxy)-5,6,7,8-tetrahydropyrido[3,4-d]pyrimidin-4-yl)-3,6-diazabicyclo[3.1.1]heptane]: the IC50 in assay [1] is more than 10 µM; in assay [2], 749 nM.
In the same order, the values of `Cc1cccc2cccc(N3CCc4c(nc(OC[C@@H]5CCCN5C)nc4N4CC5CCC4CN5)C3)c12` (stereo partly drawn) [Example 6, 2-(7-(8-methylnaphthalen-1-yl)-2-(((S)-1-methylpyrrolidin-2-yl)methoxy)-5,6,7,8-tetrahydropyrido[3,4-d]pyrimidin-4-yl)-2,5-diazabicyclo[2.2.2]octane] are more than 50 µM and 713 nM.
On the same counts, the results for `Cc1cccc2cccc(N3CCc4c(nc(OC[C@@H]5CCCN5C)nc4N4CC5CC4CN5)C3)c12` (stereo partly drawn) [Example 4, 4-(2,5-diazabicyclo[2.2.1]heptan-2-yl)-7-(8-methylnaphthalen-1-yl)-2-(((S)-1-methylpyrrolidin-2-yl)methoxy)-5,6,7,8-tetrahydropyrido[3,4-d]pyrimidine] are more than 50 µM and 2590 nM.
On the same counts, the results for `CN1CCC[C@H]1COc1nc2c(c(N3CC4CCC(C3)N4)n1)CCN(c1cc(O)cc3ccccc13)C2` [Example 10] are 6.21 µM and 22 nM.
`CN1CCC[C@H]1COc1nc2c(c(N3CC4CCC(C3)N4)n1)CCN(c1cc(N)cc(Cl)c1C(F)(F)F)C2` [Example 12, 3-(4-(3,8-diazabicyclo[3.2.1]octan-3-yl)-2-(((S)-1-methylpyrrolidin-2-yl)methoxy)-5,8-dihydropyrido[3,4-d]pyrimidin-7(6H)-yl)-5-chloro-4-(trifluoromethyl)aniline]: the IC50 in assay [1] was 2.39 µM; in assay [2], 9.8 nM; in assay [3], 1.95 µM.
On to `Cc1cccc2cccc(N3CCc4c(nc(OC[C@@H]5CCCN5C)nc4N4CCNCC4)C3)c12` [Example 1, (S)-7-(8-methylnaphthalen-1-yl)-2-((1-methylpyrrolidin-2-yl)methoxy)-4-(piperazin-1-yl)-5,6,7,8-tetrahydropyrido[3,4-d]pyrimidine], for which the IC50 in assay [1] is more than 50 µM; in assay [2] it was 22700 nM.
For `CO[C@@H]1C[C@@H](COc2nc3c(c(N4CC5CCC(C4)N5)n2)CCN(c2cccc4cccc(Cl)c24)C3)N(C)C1` [Example 14, 4-(3,8-diazabicyclo[3.2.1]octan-3-yl)-7-(8-chloronaphthalen-1-yl)-2-(((2S,4R)-4-methoxy-1-methylpyrrolidin-2-yl)methoxy)-5,6,7,8-tetrahydropyrido[3,4-d]pyrimidine], the IC50 in assay [1] was more than 10 µM; in assay [2] it was 126 nM; in assay [3], more than 10 µM.
Turning to `CN1CCC[C@H]1COc1nc2c(c(N3CC4CCC(C3)N4)n1)CCN(c1cccc3ccc(Cl)c(Cl)c13)C2` [Example 9], the IC50 in assay [1] was more than 10 µM; in assay [2], 63 nM; in assay [3], 9.93 µM.
